{"source": "patent US11117887B2", "about": "“Aryl substituted pyrimidines for use in influenza virus infection” (Janssen Sciences Ireland Unlimited Company, priority 2016, dated 2021)", "key": {"[1]": {"tested_on": "influenza virus A/Taiwan/1/86 (H1N1)", "experiment": "organism not typed", "assay_type": "cell-based", "details": "72 h; CPE in infected MDCK cells, ATP levels (ATPlite), three days post-virus exposure"}, "in vitro": {"experiment": "in vitro", "details": "dog"}}}
{"smiles": "Cc1cc(N[C@@H]2CCC[C@H](Nc3nc(-c4c[nH]c5c(F)cc(F)cc45)nc(C(=O)O)c3F)C2)nc(Cl)n1", "note": "[Compound 54]", "values": [{"measurement": "IC50", "setting": "[1]", "result": 61, "unit": "nM"}, {"measurement": "CC50 at 3 days", "setting": "in vitro", "result": "> 25000", "unit": "nM"}]}
{"smiles": "Cc1nc(-c2c[nH]c3c(F)cc(F)cc23)nc(N[C@@H]2CCC[C@H](Nc3cc(C(F)(F)F)nc(Cl)n3)C2)c1F", "note": "[Compound 35]", "values": [{"measurement": "IC50", "setting": "[1]", "result": 30, "unit": "nM"}, {"measurement": "CC50 at 3 days", "setting": "in vitro", "result": 890, "unit": "nM"}]}
{"smiles": "Cc1ccnc(N[C@@H]2CCC[C@H](Nc3nc(-c4c[nH]c5ncncc45)nc(C)c3F)C2)n1", "note": "[Compound 65]", "values": [{"measurement": "IC50", "setting": "[1]", "result": 7, "unit": "nM"}, {"measurement": "CC50 at 3 days", "setting": "in vitro", "result": "> 25000", "unit": "nM"}]}
{"smiles": "Fc1cc(F)c2[nH]cc(-c3ncc(F)c(N[C@H]4CCC[C@@H](Nc5ncncc5F)C4)n3)c2c1", "note": "[Compound 19]", "values": [{"measurement": "IC50", "setting": "[1]", "result": 140, "unit": "nM"}, {"measurement": "melting point", "result": 215.6, "unit": "°C"}, {"measurement": "CC50 at 3 days", "setting": "in vitro", "result": "> 25000", "unit": "nM"}]}
{"smiles": "COc1nccc(N[C@@H]2CCC[C@H](Nc3nc(-c4c[nH]c5c(F)cc(F)cc45)ncc3F)C2)n1", "note": "[Compound 15]", "values": [{"measurement": "IC50", "setting": "[1]", "result": 75, "unit": "nM"}, {"measurement": "melting point", "result": 139.6, "unit": "°C"}, {"measurement": "CC50 at 3 days", "setting": "in vitro", "result": 3190, "unit": "nM"}]}
{"smiles": "Cc1nc(-c2c[nH]c3c(F)cc(F)cc23)nc(N[C@H]2CCC[C@@H](Nc3nc(Cl)nc4sccc34)C2)c1F", "note": "[Compound 39]", "values": [{"measurement": "IC50", "setting": "[1]", "result": 3, "unit": "nM"}, {"measurement": "CC50 at 3 days", "setting": "in vitro", "result": "> 25000", "unit": "nM"}]}
{"smiles": "Cc1nc(-c2c[nH]c3c(F)cc(F)cc23)nc(N[C@H]2CCC[C@@H](Nc3nc(Cl)nc4c3CCCC4)C2)c1F", "note": "[Compound 37]", "values": [{"measurement": "IC50", "setting": "[1]", "result": 11, "unit": "nM"}, {"measurement": "CC50 at 3 days", "setting": "in vitro", "result": "> 25000", "unit": "nM"}]}
{"smiles": "Cc1cc(N[C@@H]2CCC[C@H](Nc3nc(-c4c[nH]c5ncncc45)nc(C)c3F)C2)ncn1", "note": "[Compound 64]", "values": [{"measurement": "IC50", "setting": "[1]", "result": 8, "unit": "nM"}, {"measurement": "CC50 at 3 days", "setting": "in vitro", "result": "> 25000", "unit": "nM"}]}
{"smiles": "Cc1nc(-c2c[nH]c3c(F)cc(F)cc23)nc(N[C@H]2CCC[C@@H](Nc3nc(Cl)nc4c3CCC4)C2)c1F", "note": "[Compound 38]", "values": [{"measurement": "IC50", "setting": "[1]", "result": 1, "unit": "nM"}, {"measurement": "CC50 at 3 days", "setting": "in vitro", "result": "> 25000", "unit": "nM"}]}
{"smiles": "COc1cnc(Cl)nc1N[C@@H]1CCC[C@H](Nc2nc(-c3c[nH]c4c(F)cc(F)cc34)nc(C)c2F)C1", "note": "[Compound 45]", "values": [{"measurement": "IC50", "setting": "[1]", "result": 36, "unit": "nM"}, {"measurement": "melting point", "result": 246.6, "unit": "°C"}, {"measurement": "CC50 at 3 days", "setting": "in vitro", "result": "> 25000", "unit": "nM"}]}
{"smiles": "Nc1nc(N[C@H]2CCC[C@@H](Nc3nc(-c4c[nH]c5c(F)cc(F)cc45)ncc3F)C2)c2ccccc2n1", "note": "[Compound 13]", "values": [{"measurement": "IC50", "setting": "[1]", "result": 20, "unit": "nM"}, {"measurement": "CC50 at 3 days", "setting": "in vitro", "result": 11600, "unit": "nM"}]}
{"smiles": "Cc1nc(-c2c[nH]c3c(F)cc(F)cc23)nc(N[C@H]2CCC[C@@H](Nc3ncnc4nc[nH]c34)C2)c1F", "note": "[Compound 47]", "values": [{"measurement": "IC50", "setting": "[1]", "result": 0.7, "unit": "nM"}, {"measurement": "CC50 at 3 days", "setting": "in vitro", "result": 11000, "unit": "nM"}]}
{"smiles": "Fc1cc(F)c2[nH]cc(-c3ncc(F)c(N[C@H]4CCC[C@@H](Nc5ccnc(Cl)n5)C4)n3)c2c1", "note": "[Compound 16]", "values": [{"measurement": "IC50", "setting": "[1]", "result": 8, "unit": "nM"}, {"measurement": "CC50 at 3 days", "setting": "in vitro", "result": 2170, "unit": "nM"}]}
{"smiles": "Cc1cc(N[C@@H]2CCC[C@H](Nc3nc(-c4c[nH]c5c(F)cc(F)cc45)nc(C)c3F)C2)ncn1", "note": "[Compound 46]", "values": [{"measurement": "IC50", "setting": "[1]", "result": 2, "unit": "nM"}, {"measurement": "CC50 at 3 days", "setting": "in vitro", "result": "> 25000", "unit": "nM"}]}
{"smiles": "N#Cc1nccc(N[C@@H]2CCC[C@H](Nc3nc(-c4c[nH]c5c(F)cc(F)cc45)ncc3F)C2)n1", "note": "[Compound 14]", "values": [{"measurement": "IC50", "setting": "[1]", "result": 8, "unit": "nM"}, {"measurement": "melting point", "result": 215.6, "unit": "°C"}, {"measurement": "CC50 at 3 days", "setting": "in vitro", "result": 3150, "unit": "nM"}]}
{"smiles": "Cc1cc(N[C@@H]2CCC[C@H](Nc3nc(-c4c[nH]c5c(F)cc(F)cc45)ncc3F)C2)ncn1", "note": "[Compound 11]", "values": [{"measurement": "IC50", "setting": "[1]", "result": 8, "unit": "nM"}, {"measurement": "CC50 at 3 days", "setting": "in vitro", "result": 5970, "unit": "nM"}]}
{"smiles": "Nc1ncc(F)c(N[C@@H]2CCC[C@H](Nc3nc(-c4c[nH]c5c(F)cc(F)cc45)ncc3F)C2)n1", "note": "[Compound 12]", "values": [{"measurement": "IC50", "setting": "[1]", "result": 6, "unit": "nM"}, {"measurement": "CC50 at 3 days", "setting": "in vitro", "result": "> 1000", "unit": "nM"}]}
{"smiles": "Cc1nc(-c2c[nH]c3c(F)cc(F)cc23)nc(N[C@H]2CCC[C@@H](Nc3cncc(Cl)n3)C2)c1F", "note": "[Compound 40]", "values": [{"measurement": "IC50", "setting": "[1]", "result": 24, "unit": "nM"}, {"measurement": "melting point", "result": 201.8, "unit": "°C"}, {"measurement": "CC50 at 3 days", "setting": "in vitro", "result": "> 25000", "unit": "nM"}]}
{"smiles": "Cc1nc(-c2c[nH]c3c(F)cc(F)cc23)nc(N[C@H]2CCC[C@@H](Nc3nc(O)ncc3C#N)C2)c1F", "note": "[Compound 43]", "values": [{"measurement": "IC50", "setting": "[1]", "result": 0.6, "unit": "nM"}, {"measurement": "CC50 at 3 days", "setting": "in vitro", "result": "> 25000", "unit": "nM"}]}
{"smiles": "Cc1nc(-c2c[nH]c3c(F)cc(F)cc23)nc(N[C@H]2CCC[C@@H](Nc3ncc(C4CC4)c(Cl)n3)C2)c1F", "note": "[Compound 41]", "values": [{"measurement": "IC50", "setting": "[1]", "result": 39, "unit": "nM"}, {"measurement": "melting point", "result": 222.7, "unit": "°C"}, {"measurement": "CC50 at 3 days", "setting": "in vitro", "result": "> 25000", "unit": "nM"}]}
{"smiles": "Cc1nc(Cl)nc(N[C@@H]2CCC[C@H](Nc3nc(-c4c[nH]c5c(F)cc(F)cc45)nc(C)c3F)C2)c1F", "note": "[Compound 36]", "values": [{"measurement": "IC50", "setting": "[1]", "result": 2, "unit": "nM"}, {"measurement": "CC50 at 3 days", "setting": "in vitro", "result": "> 25000", "unit": "nM"}]}
{"smiles": "Cc1nc(-c2c[nH]c3c(F)cc(F)cc23)nc(N[C@H]2CCC[C@@H](Nc3nc(Cl)ncc3C3CC3)C2)c1F", "note": "[Compound 42]", "values": [{"measurement": "IC50", "setting": "[1]", "result": 41, "unit": "nM"}, {"measurement": "CC50 at 3 days", "setting": "in vitro", "result": "> 25000", "unit": "nM"}]}
{"smiles": "Cc1cc(O[C@@H]2CCC[C@H](Nc3nc(-c4c[nH]c5c(F)cc(F)cc45)nc(C)c3F)C2)ncn1", "note": "[Compound 71]", "values": [{"measurement": "IC50", "setting": "[1]", "result": 13, "unit": "nM"}, {"measurement": "CC50 at 3 days", "setting": "in vitro", "result": 2200, "unit": "nM"}]}
{"smiles": "Cc1cnc(Cl)nc1N[C@@H]1CCC[C@H](Nc2nc(-c3c[nH]c4c(F)cc(F)cc34)nc(C)c2F)C1", "note": "[Compound 44]", "values": [{"measurement": "IC50", "setting": "[1]", "result": 10, "unit": "nM"}, {"measurement": "melting point", "result": 185.4, "unit": "°C"}, {"measurement": "CC50 at 3 days", "setting": "in vitro", "result": "> 25000", "unit": "nM"}]}
{"smiles": "Fc1cc(F)c2[nH]cc(-c3ncc(F)c(N[C@H]4CCC[C@@H](Nc5ccncn5)C4)n3)c2c1", "note": "[Compound 18]", "values": [{"measurement": "IC50", "setting": "[1]", "result": 8, "unit": "nM"}, {"measurement": "melting point", "result": 166.5, "unit": "°C"}, {"measurement": "CC50 at 3 days", "setting": "in vitro", "result": 8340, "unit": "nM"}]}
{"smiles": "Cc1nccc(N[C@H]2CCC[C@@H](Nc3nc(-c4c[nH]c5c(F)cc(F)cc45)ncc3F)C2)n1", "note": "[Compound 10]", "values": [{"measurement": "IC50", "setting": "[1]", "result": 20, "unit": "nM"}, {"measurement": "CC50 at 3 days", "setting": "in vitro", "result": 2880, "unit": "nM"}]}
